Results published in PubChem BioAssay (NCI).
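The compound was tested at five concentrations on cells cultured in 96-well plates, with a 48-hour exposure period. Here, GI50 denotes the concentration required for 50% inhibition of growth. The concentration for full growth arrest is given as TGI.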

Columns and labels:
Experiment in all cases: NCI tumour cell line growth inhibition, 48 h
MCF7 breast = tested on: MCF7 breast
SF-539 CNS = tested on: SF-539 CNS
SNB-75 CNS = tested on: SNB-75 CNS
NCI-H460 lung = tested on: NCI-H460 lung
IGROV1 ovarian = tested on: IGROV1 ovarian
HT29 colon = tested on: HT29 colon
HOP-62 NSCLC = tested on: HOP-62 NSCLC
RXF 393 renal = tested on: RXF 393 renal
OVCAR-4 ovarian = tested on: OVCAR-4 ovarian
HCT-15 colon = tested on: HCT-15 colon
SK-OV-3 ovarian = tested on: SK-OV-3 ovarian
SN12C renal = tested on: SN12C renal
MALME-3M melanoma = tested on: MALME-3M melanoma
KM12 colon = tested on: KM12 colon
SK-MEL-2 melanoma = tested on: SK-MEL-2 melanoma
U251 CNS = tested on: U251 CNS
MDA-MB-435 = tested on: MDA-MB-435
SF-268 CNS = tested on: SF-268 CNS
UO-31 renal = tested on: UO-31 renal
786-0 renal = tested on: 786-0 renal
UACC-62 melanoma = tested on: UACC-62 melanoma
MDA-MB-231 breast = tested on: MDA-MB-231 breast
NCI-H522 lung = tested on: NCI-H522 lung
SR leukemia = tested on: SR leukemia
TK-10 renal = tested on: TK-10 renal
HS 578T breast = tested on: HS 578T breast
BT-549 breast = tested on: BT-549 breast
A498 renal = tested on: A498 renal
PC-3 prostate = tested on: PC-3 prostate
HCT-116 colon = tested on: HCT-116 colon
HCC-2998 colon = tested on: HCC-2998 colon
DU-145 prostate = tested on: DU-145 prostate
CCRF-CEM leukemia = tested on: CCRF-CEM leukemia
SNB-19 CNS = tested on: SNB-19 CNS
RPMI-8226 leukemia = tested on: RPMI-8226 leukemia
SW-620 colon = tested on: SW-620 colon
OVCAR-5 ovarian = tested on: OVCAR-5 ovarian
OVCAR-8 ovarian = tested on: OVCAR-8 ovarian
NCI/ADR-RES ovarian = tested on: NCI/ADR-RES ovarian
ACHN renal = tested on: ACHN renal
UACC-257 melanoma = tested on: UACC-257 melanoma
OVCAR-3 ovarian = tested on: OVCAR-3 ovarian
MOLT-4 leukemia = tested on: MOLT-4 leukemia
M14 melanoma = tested on: M14 melanoma
SK-MEL-28 melanoma = tested on: SK-MEL-28 melanoma
HOP-92 NSCLC = tested on: HOP-92 NSCLC
SK-MEL-5 melanoma = tested on: SK-MEL-5 melanoma
COLO 205 colon = tested on: COLO 205 colon
CAKI-1 renal = tested on: CAKI-1 renal
A549 NSCLC = tested on: A549 NSCLC

## O=C1Nc2cc(OC(F)(F)F)ccc2Oc2ccc(-c3ccnc(N4CCNCC4)c3)cc21
MCF7 breast
  GI50: 840 nM
  TGI: > 100000 nM
SF-539 CNS
  GI50: 1580 nM
  TGI: 2980 nM
SNB-75 CNS
  GI50: 1500 nM
  TGI: 2860 nM
NCI-H460 lung
  GI50: 655 nM
  TGI: 1940 nM
IGROV1 ovarian
  GI50: 1200 nM
  TGI: 2550 nM
HT29 colon
  GI50: 764 nM
  TGI: 2060 nM
HOP-62 NSCLC
  GI50: 1600 nM
  TGI: 3260 nM
RXF 393 renal
  GI50: 1390 nM
  TGI: 2840 nM
OVCAR-4 ovarian
  GI50: 1620 nM
  TGI: 3250 nM
HCT-15 colon
  GI50: 864 nM
  TGI: 4560 nM
SK-OV-3 ovarian
  GI50: 2570 nM
  TGI: 6790 nM
SN12C renal
  GI50: 1790 nM
  TGI: 3620 nM
MALME-3M melanoma
  GI50: 1260 nM
  TGI: 2740 nM
KM12 colon
  GI50: 900 nM
  TGI: 2740 nM
SK-MEL-2 melanoma
  GI50: 1470 nM
  TGI: 2930 nM
U251 CNS
  GI50: 1460 nM
  TGI: 2850 nM
MDA-MB-435
  GI50: 282 nM
  TGI: 1030 nM
SF-268 CNS
  GI50: 1700 nM
  TGI: 3480 nM
UO-31 renal
  GI50: 1340 nM
  TGI: 2660 nM
786-0 renal
  GI50: 1530 nM
  TGI: 2890 nM
UACC-62 melanoma
  GI50: 1650 nM
  TGI: 3150 nM
MDA-MB-231 breast
  GI50: 1610 nM
  TGI: 3180 nM
NCI-H522 lung
  GI50: 1590 nM
  TGI: 3160 nM
SR leukemia
  GI50: 345 nM
  TGI: 1820 nM
TK-10 renal
  GI50: 1500 nM
  TGI: 3470 nM
HS 578T breast
  GI50: 1700 nM
  TGI: 3980 nM
BT-549 breast
  GI50: 1950 nM
  TGI: 3740 nM
A498 renal
  GI50: 1600 nM
  TGI: 2950 nM
PC-3 prostate
  GI50: 1290 nM
  TGI: 2870 nM
HCT-116 colon
  GI50: 1000 nM
  TGI: 2170 nM
HCC-2998 colon
  GI50: 1330 nM
  TGI: 2690 nM
DU-145 prostate
  GI50: 1650 nM
  TGI: 3080 nM
CCRF-CEM leukemia
  GI50: 1870 nM
  TGI: 6760 nM
SNB-19 CNS
  GI50: 1550 nM
  TGI: 3140 nM
RPMI-8226 leukemia
  GI50: 1840 nM
  TGI: 4780 nM
SW-620 colon
  GI50: 516 nM
  TGI: 1730 nM
OVCAR-5 ovarian
  GI50: 1460 nM
  TGI: 3290 nM
OVCAR-8 ovarian
  GI50: 1580 nM
  TGI: 3000 nM
NCI/ADR-RES ovarian
  GI50: 1610 nM
  TGI: 3500 nM
ACHN renal
  GI50: 1680 nM
  TGI: 3050 nM
UACC-257 melanoma
  GI50: 1550 nM
  TGI: 3050 nM
OVCAR-3 ovarian
  GI50: 1120 nM
  TGI: 2490 nM
MOLT-4 leukemia
  GI50: 1080 nM
  TGI: 3290 nM
M14 melanoma
  GI50: 1230 nM
  TGI: 2540 nM
SK-MEL-28 melanoma
  GI50: 1390 nM
  TGI: 2730 nM
HOP-92 NSCLC
  GI50: 1170 nM
  TGI: 2510 nM
SK-MEL-5 melanoma
  GI50: 1620 nM
  TGI: 3010 nM
COLO 205 colon
  GI50: 1540 nM
  TGI: 3080 nM
CAKI-1 renal
  GI50: 1150 nM
  TGI: 2430 nM
A549 NSCLC
  GI50: 1130 nM
  TGI: 2510 nM
